By viability, T/C is commonly meant the ratio of treated to control. The IC50 is the midpoint of a concentration-inhibition curve.

Where “and” joins values, the source holds several entries; their conditions need not be identical. Equal entries are not always repeated.

For the test, the system named is 885724-159-R-J1-PDC complex spheroid viability. Nature of the test: Anticancer human tumor 885724-159-R-J1-PDC patient-derived pancreatic adenocarcinoma cell line growth inhibition [POLQ]. The following applies: for viability, T/C: stronger effect = lower value. As to the method:
Multicellular complex tumor spheroid response to Polymerase (POL) inhibitors (novobiocin, ART-558, RP6685) in combination with a variety of drugs and investigational agents in selected tumor cell lines
The POL inhibitors (novobiocin, ART-558, and RP6685) were evaluated both individually and in combination with standard of care and investigational anticancer small molecules within a complex spheroid model of solid tumors. . Complex spheroids include a stromal component modeled by human endothelial cells (HUVEC) and fibroblasts modeled by human mesenchymal stem cells (MSCs). The concentration ranges selected for each drug and investigational agent were based upon clinically achievable concentrations if the clinical Cmax of the agent was known.
Compounds. The drugs and investigational agents: novobiocin (NSC847541), ART-558 (NSC835418), RP-6685 (NSC848927), peposertib (NSC802822), ceralasertib (NSC780249), elimusertib (NSC800525), camonsertib (NSC841442), AZD-1390 (NSC803789), olaparib (NSC753686), talazoparib (NSC767125), rucaparib (NSC756644), sotorasib (NSC818433), MRTX-1133 (NSC836407), SN-38 (NSC673596), topotecan (NSC609699), epotoside (NSC141540), doxorubicin (NSC123127), gemcitabine (NSC613327), 5-fluorouracil (NSC19893), paclitaxel (NSC125973), vemurafenib (NSC761431), MSA-2 (NSC828583), SN-011 (NSC837082), adavosertib (NSC754352), prexasertib (NSC758257), carboplatin (NSC241240) and oxaliplatin (NSC266046), were obtained from the National Cancer Institute (NCI) Developmental Therapeutics Program Chemical Repository (21). The FDA-approved anticancer drug set is available from the Developmental Therapeutics Program at https://dtp.cancer.gov/organization/dscb/obtaining/. […] The stock solutions were prepared in dimethyl sulfoxide (DMSO, Sigma-Aldrich, St. Louis, MO, cat. D2650), except for the platinum compounds which were prepared in saline (Quality Biological, Gaithersburg, MD, cat. 114-055-101), at 800-fold the tested concentration and stored at -70 degrees C prior to their use. All drugs and investigational agents were tested over a range starting from a high concentration at or near the clinical Cmax and decreasing in half-log increments. If the clinical Cmax for an agent had not been determined, the highest concentration tested was 10 microM, except for SN-38, which was tested at a high concentration of 1 microM.
Cell Culture. All cells were maintained in an incubator at 37 degrees C and 5% CO2 with 95% humidity. The PDC lines were cultured according to standard operating procedures established by the NCI PDMR (https://pdmr.cancer.gov). Table 3 of the manuscript, lists the cell lines along with the number of the three cell types plated to form the mct-spheroids and media for tumor cell growth. After thawing, all PDC lines, except 997537-175-T-J1-PDC and 415267-285-R-J2-PDC, were cultured in Matrigel-coated flasks prepared with a working solution of 1X Ham's F-12 nutrient mix, without supplementation (Thermo Fisher Scientific, cat. 11765054), 100 U/mL penicillin-streptomycin (Thermo Fisher Scientific, cat. 15140122), and 2.5% Matrigel (Corning Inc., Corning, NY, cat. 354248) for the first three passages. The two PDC lines 997537-175-T-J1-PDC and 415267-285-R-J2-PDC were cultured on uncoated flasks. The 857933-349-R-J2-PDC line was cultured in 6C/Colon 1B media containing advanced DMEM/F-12 (Thermo Fisher Scientific, cat. 12634028), 10 mM HEPES (Thermo Fisher Scientific, cat. 15630080), 1X GlutaMAX supplement (Thermo Fisher Scientific, cat. 35050061), 0.1 mg/mL primocin (InvivoGen, San Diego, CA, cat. ant-pm-2), 10% defined fetal bovine serum, heat inactivated (HyClone Laboratories Inc., Logan, UT, cat. SH30070.03HI), 50% L-WRN conditioned media (ATCC, cat. CRL-3276), 1.25 mM N-Acetyl-L-cysteine (Sigma-Aldrich, cat. A9165), 10 mM nicotinamide (Sigma-Aldrich, cat. N0636), 1X B-27 supplement (Thermo Fisher Scientific, cat. 17504044), 1X N-2 supplement (Thermo Fisher Scientific, cat. […]

[1] abbreviates: curve of first compound, second compound 0.0316 µM.
Setting [2] is: curve of first compound, second compound 0.1 µM.
[3] abbreviates: curve of first compound, second compound 0.316 µM.
Where [4] appears, read: curve of first compound, second compound 1 µM.
[5] abbreviates: curve of first compound, second compound 3.16 µM.
The mark [6] stands for this setting: curve of first compound, second compound 10 µM.
[7] abbreviates: second compound 0.0316 µM, first compound 0.0316 µM.
Setting [8] is: second compound 0.0316 µM, first compound 0.1 µM.
Setting [9] is: second compound 0.0316 µM, first compound 0.316 µM.
Setting [10] is: second compound 0.0316 µM, first compound 1 µM.
Where [11] appears, read: second compound 0.0316 µM, first compound 3.16 µM.
[12] abbreviates: second compound 0.0316 µM, first compound 10 µM.
Where [13] appears, read: second compound 0.1 µM, first compound 0.0316 µM.
The mark [14] stands for this setting: second compound 0.1 µM, first compound 0.1 µM.
Setting [15] is: second compound 0.1 µM, first compound 0.316 µM.
[16] abbreviates: second compound 0.1 µM, first compound 1 µM.
[17] abbreviates: second compound 0.1 µM, first compound 3.16 µM.
The mark [18] stands for this setting: second compound 0.1 µM, first compound 10 µM.
Where [19] appears, read: second compound 0.316 µM, first compound 0.0316 µM.
Setting [20] is: second compound 0.316 µM, first compound 0.1 µM.
The mark [21] stands for this setting: second compound 0.316 µM, first compound 0.316 µM.
The mark [22] stands for this setting: second compound 0.316 µM, first compound 1 µM.
Setting [23] is: second compound 0.316 µM, first compound 3.16 µM.
The mark [24] stands for this setting: second compound 0.316 µM, first compound 10 µM.
Where [25] appears, read: second compound 1 µM, first compound 0.0316 µM.
Where [26] appears, read: second compound 1 µM, first compound 0.1 µM.
[27] abbreviates: second compound 1 µM, first compound 0.316 µM.
[28] abbreviates: second compound 1 µM, first compound 1 µM.
Setting [29] is: second compound 1 µM, first compound 3.16 µM.
[30] abbreviates: second compound 1 µM, first compound 10 µM.
The mark [31] stands for this setting: second compound 3.16 µM, first compound 0.0316 µM.
The mark [32] stands for this setting: second compound 3.16 µM, first compound 0.1 µM.
Where [33] appears, read: second compound 3.16 µM, first compound 0.316 µM.
The mark [34] stands for this setting: second compound 3.16 µM, first compound 1 µM.
[35] abbreviates: second compound 3.16 µM, first compound 3.16 µM.
The mark [36] stands for this setting: second compound 3.16 µM, first compound 10 µM.
[37] abbreviates: second compound 10 µM, first compound 0.0316 µM.
[38] abbreviates: second compound 10 µM, first compound 0.1 µM.
The mark [39] stands for this setting: second compound 10 µM, first compound 0.316 µM.
Where [40] appears, read: second compound 10 µM, first compound 1 µM.
Where [41] appears, read: second compound 10 µM, first compound 3.16 µM.
[42] abbreviates: second compound 10 µM, first compound 10 µM.
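Further: spheroids exposed to compounds for 7 days.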

Turning to `COC1C(OC(N)=O)C(O)C(Oc2ccc3c(O)c(NC(=O)c4ccc(O)c(CC=C(C)C)c4)c(=O)oc3c2C)OC1(C)C` (centres undefined), the viability, T/C is, setting by setting: (compound 0.0316 µM) 94.1% [middle of 13 runs]; (compound 0.1 µM) 95.9% [middle of 13 runs]; (compound 0.316 µM) 98.5% [middle of 13 runs]; (compound 1 µM) 98.8% [middle of 12 runs]; (compound 3.16 µM) 98.5% [middle of 13 runs]; (compound 10 µM) 106% [middle of 13 runs]. Besides, the IC50 (compound alone, run of 11/27/2023) was above 10 µM.
Regarding `O=C(c1cc(Cc2n[nH]c(=O)c3ccccc23)ccc1F)N1CCN(C(=O)C2CC2)CC1`, the viability, T/C by setting is: (compound 0.0316 µM) 103% and 105% (2×); (compound 0.1 µM) 97.6% and 102% and 98%; (compound 0.316 µM) 97.1% and 109% and 95.8%; (compound 1 µM) 94% and 107% and 93.8%; (compound 3.16 µM) 93.9% and 95.7% and 87.6%; (compound 10 µM) 78.1% and 78.9% and 82.2%. For the setting “curve of compound”, the IC50 was above 10 µM.
Consider `COc1cc2cc(C(=O)CCC(=O)O)sc2cc1OC` + Nc1ccc(C#CCN(C(=O)Cc2ncc(C(F)(F)F)cc2C(F)(F)F)c2ccc(F)cc2)nn1, for which the IC50 by setting is: under setting [1], above 10 µM; under setting [2], above 10 µM; under setting [3], above 10 µM; under setting [4], above 10 µM; under setting [5], above 10 µM; under setting [6], above 10 µM. For the same compound, the viability, T/C under setting [7] was 96.1%; the viability, T/C under setting [8] was 105%; the viability, T/C under setting [9] was 98.3%; the viability, T/C under setting [10] is 108%; the viability, T/C under setting [11] is 107%; the viability, T/C under setting [12] was 100%. Besides, the viability, T/C was 103% under setting [13]; 106% under setting [14]; 98.8% under setting [15]; 95.7% under setting [16]; 101% under setting [17]; 88.8% under setting [18]. In addition, the viability, T/C reads like this: under setting [19], 101%; under setting [20], 95.3%; under setting [21], 90%; under setting [22], 109%; under setting [23], 97.6%; under setting [24], 86.3%. In addition, the viability, T/C is 94.9% under setting [25]; 95.2% under setting [26]; 94.4% under setting [27]; 92.4% under setting [28]; 103% under setting [29]; 88.9% under setting [30]. For the same compound, the viability, T/C under setting [31] is 91.1%; the viability, T/C under setting [32] was 94.5%; the viability, T/C under setting [33] is 103%; the viability, T/C under setting [34] is 94.1%; the viability, T/C under setting [35] is 104%; the viability, T/C under setting [36] was 86.4%. Also, the viability, T/C reads like this: under setting [37], 107%; under setting [38], 97.3%; under setting [39], 92.7%; under setting [40], 96.8%; under setting [41], 114%; under setting [42], 96%.
As for `CC1COCCN1c1cc(C2(O)CC3CCC(C2)O3)c2cnn(-c3ccn[nH]3)c2n1` (centres undefined), the viability, T/C reads like this: (compound 0.0316 µM) 74.4% and 70.9% and 67.4%; (compound 0.1 µM) 52.9% and 50.4% (2×); (compound 0.316 µM) 48.7% and 37.5% and 44.3%; (compound 1 µM) 41.8% and 37.1% and 40.4%; (compound 3.16 µM) 37.3% and 33.5% and 35.4%; (compound 10 µM) 28.7% and 26.5% and 27.9%. The IC50 (curve of compound) was 0.226 µM and 0.106 µM and 0.156 µM.
On to `CC1COCCN1c1cc(C2(O)CC3CCC(C2)O3)c2cnn(-c3ccn[nH]3)c2n1` (centres undefined) + Cc1cccc(N(C)C(=O)C2C(O)CCN2c2nc(C)cc(C(F)(F)F)c2C#N)c1, for which the IC50 runs as follows: under setting [1], 0.142 µM; under setting [2], 0.243 µM; under setting [3], 0.151 µM; under setting [4], 0.188 µM; under setting [5], 0.302 µM; under setting [6], 0.225 µM. For the same compound, the viability, T/C reads like this: under setting [7], 74.4%; under setting [8], 51.4%; under setting [9], 41.6%; under setting [10], 39.6%; under setting [11], 35.4%; under setting [12], 28.5%. Also, the viability, T/C is 72% under setting [13]; 58.1% under setting [14]; 47.6% under setting [15]; 39.3% under setting [16]; 35.4% under setting [17]; 30.8% under setting [18]. In addition, the viability, T/C runs as follows: under setting [19], 70.4%; under setting [20], 46.9%; under setting [21], 47.2%; under setting [22], 41%; under setting [23], 35.3%; under setting [24], 28.8%. Besides, the viability, T/C under setting [25] is 77.3%; the viability, T/C under setting [26] was 56.7%; the viability, T/C under setting [27] is 41.4%; the viability, T/C under setting [28] was 40%; the viability, T/C under setting [29] is 33.2%; the viability, T/C under setting [30] was 27.1%. In addition, the viability, T/C runs as follows: under setting [31], 68.8%; under setting [32], 55.8%; under setting [33], 49.4%; under setting [34], 43.2%; under setting [35], 36.5%; under setting [36], 29.2%. Also, the viability, T/C runs as follows: under setting [37], 70.6%; under setting [38], 54.2%; under setting [39], 48.8%; under setting [40], 38.1%; under setting [41], 36%; under setting [42], 29%.
`CC(C)n1c(=O)n(C)c2cnc3cc(F)c(-c4ccc(OCCCN5CCCCC5)nc4)cc3c21`: the viability, T/C (compound 0.0316 µM) was 94.5% and 97.2% and 114%; the viability, T/C (compound 0.1 µM) was 99.6% and 106% and 103%; the viability, T/C (compound 0.316 µM) was 98.5% and 110% and 99.5%; the viability, T/C (compound 1 µM) was 102% and 97.6% and 97.8%; the viability, T/C (compound 3.16 µM) is 93.2% and 94.7% and 105%; the viability, T/C (compound 10 µM) is 67% and 74.3% and 92.4%. For the same compound, the IC50 (curve of compound) was above 10 µM.
Regarding `CC1COCCN1c1cc(C2(S(C)(=N)=O)CC2)nc(-c2ccnc3[nH]ccc23)n1` (centres undefined), the viability, T/C runs as follows: (compound 0.0316 µM) 96.4% and 90.3% and 97.2%; (compound 0.1 µM) 100% and 94.7% and 97.1%; (compound 0.316 µM) 93.7% and 85.1% and 88.2%; (compound 1 µM) 73.4% and 67.6% and 74.4%; (compound 3.16 µM) 55% and 54.6% and 54.8%; (compound 10 µM) 45.8% and 44.7% and 42.3%. For the setting “curve of compound”, the IC50 is 5.73 µM and 4.93 µM.

(Values after PubChem BioAssay AID1963832 (Molecular Pharmacology Branch, DTP, NCI, 2024).)
